Results: the CheMixHub viscosity set
± gives the uncertainty stated by the source.

Assay: xn = mol fraction of the nth substance listed

CCCOC(=O)c1ccccc1 + CCCCCC
101 kPa
Settings	viscosity [mPa·s]
298.15 K, x2 = 0.0545	2.09 ± 0.066
298.15 K, x2 = 0.1249	1.794 ± 0.057
298.15 K, x2 = 0.1605	1.659 ± 0.053
298.15 K, x2 = 0.2369	1.409 ± 0.045
298.15 K, x2 = 0.2765	1.298 ± 0.041
298.15 K, x2 = 0.33	1.155 ± 0.037
298.15 K, x2 = 0.3772	1.043 ± 0.033
298.15 K, x2 = 0.4847	0.827 ± 0.026
298.15 K, x2 = 0.5259	0.756 ± 0.024
298.15 K, x2 = 0.5689	0.69 ± 0.022
298.15 K, x2 = 0.6152	0.627 ± 0.02
298.15 K, x2 = 0.6632	0.569 ± 0.018
298.15 K, x2 = 0.7031	0.525 ± 0.017
298.15 K, x2 = 0.7496	0.479 ± 0.015
298.15 K, x2 = 0.7954	0.448 ± 0.014
298.15 K, x2 = 0.8308	0.42 ± 0.014
298.15 K, x2 = 0.8752	0.399 ± 0.013
298.15 K, x2 = 0.9201	0.371 ± 0.012
298.15 K, x2 = 0.9574	0.351 ± 0.011
308.15 K, x2 = 0.0876	1.62 ± 0.052
308.15 K, x2 = 0.1454	1.451 ± 0.046
308.15 K, x2 = 0.1923	1.32 ± 0.042
308.15 K, x2 = 0.2499	1.174 ± 0.037
308.15 K, x2 = 0.3064	1.046 ± 0.033
308.15 K, x2 = 0.3543	0.95 ± 0.03
308.15 K, x2 = 0.4116	0.845 ± 0.027
308.15 K, x2 = 0.4488	0.785 ± 0.025
308.15 K, x2 = 0.5082	0.698 ± 0.022
308.15 K, x2 = 0.5509	0.643 ± 0.021
308.15 K, x2 = 0.5926	0.594 ± 0.019
308.15 K, x2 = 0.6346	0.55 ± 0.018
308.15 K, x2 = 0.6803	0.507 ± 0.016
308.15 K, x2 = 0.7241	0.468 ± 0.015
308.15 K, x2 = 0.7719	0.433 ± 0.014
308.15 K, x2 = 0.8096	0.406 ± 0.013
308.15 K, x2 = 0.857	0.376 ± 0.012
308.15 K, x2 = 0.8946	0.354 ± 0.011
308.15 K, x2 = 0.9406	0.334 ± 0.011
318.15 K, x2 = 0.0693	1.388 ± 0.044
318.15 K, x2 = 0.1096	1.288 ± 0.041
318.15 K, x2 = 0.1613	1.172 ± 0.037
318.15 K, x2 = 0.221	1.048 ± 0.033
318.15 K, x2 = 0.2711	0.954 ± 0.03
318.15 K, x2 = 0.3284	0.856 ± 0.027
318.15 K, x2 = 0.3767	0.781 ± 0.025
318.15 K, x2 = 0.432	0.705 ± 0.023
318.15 K, x2 = 0.4801	0.644 ± 0.021
318.15 K, x2 = 0.5314	0.586 ± 0.019
318.15 K, x2 = 0.5757	0.54 ± 0.017
318.15 K, x2 = 0.6264	0.494 ± 0.016
318.15 K, x2 = 0.6694	0.457 ± 0.015
318.15 K, x2 = 0.7292	0.411 ± 0.013
318.15 K, x2 = 0.76	0.391 ± 0.013
318.15 K, x2 = 0.8056	0.362 ± 0.012
318.15 K, x2 = 0.8466	0.34 ± 0.011
318.15 K, x2 = 0.892	0.32 ± 0.01
318.15 K, x2 = 0.9292	0.304 ± 0.01

CCCCCCCC(=O)O + CCCCCC(=O)[O-].[Na+]
100 kPa, x2 = 0.3
Settings	viscosity [mPa·s]
293.15 K	305.9 ± 10
298.15 K	226.5 ± 6.7
303.15 K	171.1 ± 4.2
308.15 K	131.6 ± 2.7
313.15 K	103 ± 1.7
318.15 K	81.7 ± 1.1
323.15 K	65.7 ± 0.7

CCCCCCCCCCCCCCCCCCCC + CCCCCCC
viscosity [mPa·s], 101.3 kPa
Settings	x1 = 0.2	x1 = 0.4	x1 = 0.499	x1 = 0.597	x1 = 0.796
293.2 K	0.9382 ± 0.011	–	–	–	–
303.2 K	0.8194 ± 0.0093	1.567 ± 0.018	2.02 ± 0.023	–	–
313.2 K	0.7187 ± 0.0081	1.327 ± 0.015	1.705 ± 0.019	2.145 ± 0.024	2.989 ± 0.034

CCCCOC(C)=O + CCCCCCC
298.15 K, 101.3 kPa
Settings	viscosity [mPa·s]
x1 = 0.0364	0.4006 ± 0.004
x1 = 0.1529	0.4135 ± 0.0041
x1 = 0.2504	0.4295 ± 0.0042
x1 = 0.3266	0.4449 ± 0.0043
x1 = 0.4281	0.4667 ± 0.0045
x1 = 0.5399	0.4974 ± 0.0048
x1 = 0.6531	0.5328 ± 0.005
x1 = 0.7531	0.5696 ± 0.0053
x1 = 0.8609	0.6155 ± 0.0057
x1 = 0.9693	0.6674 ± 0.0061

CCCOC(=O)c1ccccc1 + CCCCCCC
viscosity [mPa·s], 101 kPa
Settings	x1 = 0.099	x1 = 0.1965	x1 = 0.2952	x1 = 0.395	x1 = 0.4959	x1 = 0.5924	x1 = 0.6991	x1 = 0.7981	x1 = 0.8973
298.15 K	0.444 ± 0.007	0.516 ± 0.007	0.603 ± 0.008	0.707 ± 0.008	0.842 ± 0.009	1.017 ± 0.01	1.254 ± 0.012	1.526 ± 0.014	1.853 ± 0.017
308.15 K	0.399 ± 0.007	0.466 ± 0.007	0.531 ± 0.007	0.614 ± 0.008	0.734 ± 0.008	0.874 ± 0.009	1.051 ± 0.01	1.248 ± 0.012	1.525 ± 0.014
318.15 K	0.358 ± 0.007	0.408 ± 0.007	0.472 ± 0.007	0.55 ± 0.007	0.638 ± 0.008	0.754 ± 0.008	0.897 ± 0.009	1.064 ± 0.01	1.266 ± 0.012
